Laboratory results as given in ChEMBL document CHEMBL6114980, “Single or double lipid-modified ultra-short antimicrobial peptides for treating infections caused by resistant bacteria” (Eur J Med Chem, 2025).
The source made the active and inactive calls. No cut-off for these calls is given here.

What was measured:
Staphylococcus aureus [1] = experiment: Antibacterial activity against Staphylococcus aureus 25923 at sub-MIC concentration measured after 15 passages in presence of rifampin; type: functional, organism-based
Klebsiella pneumoniae [2] = experiment: Induction of morphological changes in Klebsiella pneumoniae assessed as cell adhesion at 2 times MIC measured after 30 mins by SEM analysis; type: functional, organism-based
Escherichia coli [3] = experiment: Induction of cell membrane disruption in Escherichia coli assessed as PI uptake at 2 times MIC measured after 120 mins by PI staining based flow cytometry analysis (Rvb =<10 %); type: functional; conditions: 2 h
Staphylococcus aureus [4] = experiment: Antibacterial activity against Staphylococcus aureus 25923 at sub-MIC concentration measured after 15 passages; type: functional, organism-based
Klebsiella pneumoniae [5] = experiment: Induction of morphological changes in Klebsiella pneumoniae assessed as cell aggregation at 2 times MIC measured after 30 mins by SEM analysis; type: functional, organism-based
Klebsiella pneumoniae [6] = experiment: Induction of morphological changes in Klebsiella pneumoniae assessed as cell aggregation at 2 times MIC measured after 120 mins by SEM analysis; type: functional, organism-based
Escherichia coli [7] = experiment: Antibacterial activity against Escherichia coli 25922 at sub-MIC concentration measured after 15 passages in presence of rifampin; type: functional, organism-based
Cell membrane [8] = experiment: Induction of outer membrane permeabilization in Escherichia coli assessed as increase in fluorescence intensity at 0.5 times MIC measured for 10 mins by fluorescence based NPN uptake assay
Escherichia coli [9] = experiment: Induction of cell membrane disruption in Escherichia coli assessed as PI uptake at 4 times MIC measured after 120 mins by PI staining based flow cytometry analysis; type: functional, organism-based
Lipopolysaccharide (LPS) = experiment: Binding affinity to LPS (unknown origin) assessed as reduction in bacterial mortality at 2 times MIC preincubated with LPS for 1 hr followed by bacteria addition for 24 hrs by spectrophotometric analysis
Staphylococcus aureus [10] = experiment: Antibacterial activity against methicillin resistant Staphylococcus aureus infected in male BALB/c mouse model of skin wound infection assessed as reduction in wound area at 2 mg/kg, ip measured after 6 to 36 hrs postinfection; type: functional, organism-based; conditions: time 6-36 hrs
Cell membrane [11] = experiment: Induction of cytoplasmic membrane depolarization in Staphylococcus aureus assessed as increase in fluorescence intensity at 0.5 to 4 times MIC measured for 10 mins by DiSC3-5 dye based fluorescence assay; type: subcellular
Klebsiella pneumoniae [12] = experiment: Induction of morphological changes in Klebsiella pneumoniae assessed as cell adhesion at 2 times MIC measured after 120 mins by SEM analysis; type: functional, organism-based
Cell membrane [13] = experiment: Induction of inner membrane permeabilization in Escherichia coli at 0.5 to 4 times MIC measured for 135 mins by absorbance based analysis
Klebsiella pneumoniae [14] = experiment: Antibacterial activity against Klebsiella pneumoniae ATCC 700603 infected in male BALB/c mouse lung infection model assessed as reduction in number of inflammatory cells at 5 mg/kg, ip measured after 6 to 36 hrs; type: functional, organism-based; conditions: time 6-36 hrs
Cell membrane [15] = experiment: Induction of outer membrane permeabilization in Escherichia coli assessed as increase in fluorescence intensity measured for 10 mins by fluorescence based NPN uptake assay
Klebsiella pneumoniae [16] = experiment: Induction of morphological changes in Klebsiella pneumoniae assessed as cell contraction at 2 times MIC measured after 30 mins by SEM analysis; type: functional, organism-based
Klebsiella pneumoniae [17] = experiment: Induction of morphological changes in Klebsiella pneumoniae assessed as cell contraction at 2 times MIC measured after 120 mins by SEM analysis; type: functional, organism-based

CC(C)CCCCC(=O)N[C@@H](CCN)C(=O)N[C@H](C(=O)N[C@@H](CCN)C(=O)N[C@H]1CCNC(=O)[C@H]([C@@H](C)O)NC(=O)[C@H](CCN)NC(=O)[C@H](CCN)NC(=O)[C@H](CC(C)C)NC(=O)[C@@H](Cc2ccccc2)NC(=O)[C@@H](CCN)NC1=O)[C@@H](C)O.CC[C@H](C)CCCCC(=O)N[C@@H](CCN)C(=O)N[C@H](C(=O)N[C@@H](CCN)C(=O)N[C@H]1CCNC(=O)[C@H]([C@@H](C)O)NC(=O)[C@H](CCN)NC(=O)[C@H](CCN)NC(=O)[C@H](CC(C)C)NC(=O)[C@@H](Cc2ccccc2)NC(=O)[C@@H](CCN)NC1=O)[C@@H](C)O was tested, and the Activity (Staphylococcus aureus [1]) was “Active”, the Activity (Klebsiella pneumoniae [2]) was “Active” and the Activity (Escherichia coli [3]) was over 20%. For the same compound, the Activity (Staphylococcus aureus [4]) was “inactive”, the Activity (Klebsiella pneumoniae [5]) was “Active” and the Activity (Klebsiella pneumoniae [6]) was “Active”. The Activity (Escherichia coli [7]) was “Active”, the Activity (Cell membrane [8]) was “Active; Compound Showed Slightly Inferior Activity Than Compound D8” and the Activity (Escherichia coli [9]) was “inactive”. The Activity (Lipopolysaccharide (LPS)) was “Active”, the Activity (Staphylococcus aureus [10]) was “Active” and the Activity (Cell membrane [11]) was “Weak_effect”. For the same compound, the Activity (Klebsiella pneumoniae [12]) was “Active”, the Activity (Cell membrane [13]) was “Active; Compound Showed Lower Efficacy Than Positive Control 0.1% Tritionx 100” and the Activity (Klebsiella pneumoniae [14]) was “inactive”. The Activity (Cell membrane [15]) was “Dose-dependent-effect”, the Activity (Klebsiella pneumoniae [16]) was “Active” and the Activity (Klebsiella pneumoniae [17]) was “Active”.
